Measured values from the NIST ThermoML archive (doi:10.1021/je900550v).

Settings: 101.33 kPa, Liquid; for mass density: Vibrating tube method; for speed of sound: Pulse-echo method

CCCCC(=O)[O-].C[NH2+]CCO [2-hydroxy-N-methylethanaminium pentanoate]
Settings | mass density [kg/m3] | speed of sound [m/s]
330.41 K | 994.177 | –
330.66 K | 993.999 | 1448.5
330.91 K | 993.824 | 1447.8
331.16 K | 993.649 | 1447
331.41 K | 993.472 | 1446.2
331.66 K | 993.296 | 1445.5
331.91 K | 993.121 | 1444.7
332.16 K | 992.945 | 1443.9
332.41 K | 992.768 | 1443.2
332.66 K | 992.592 | 1442.4
332.91 K | 992.415 | 1441.6
333.16 K | 992.239 | 1440.8
333.41 K | 992.064 | 1440.1
333.66 K | 991.886 | 1439.3
333.91 K | 991.71 | 1438.5
334.16 K | 991.536 | 1437.8
334.41 K | 991.358 | 1437
334.66 K | 991.18 | 1436.2
334.91 K | 991.004 | 1435.5
335.16 K | 990.827 | 1434.7
335.41 K | 990.651 | 1434
335.66 K | 990.472 | 1433.2
335.91 K | 990.295 | 1432.4
336.16 K | 990.117 | 1431.7
336.41 K | 989.938 | 1430.9
336.66 K | 989.761 | 1430.1
336.9 K | 989.584 | 1429.3
337.16 K | 989.407 | 1428.6
337.4 K | 989.229 | 1427.8
337.66 K | 989.051 | 1427
337.9 K | 988.872 | 1426.3
338.15 K | 988.703 | 1425.6
